Assay results from US8067424B2, “Selective inhibitors for cyclin-dependent kinases” (Emory University, priority 2007, dated 2011).
Where two headings read alike, the source gives them in different places.

Assays:
Assay type in all cases: biochemical
p38γ MAPK = target: T1, p38γ MAPK (Homo sapiens, UniProt P53778); assay: Kinase screen: SAPK 3/p38g assay
T1 sequence (P53778 1-367): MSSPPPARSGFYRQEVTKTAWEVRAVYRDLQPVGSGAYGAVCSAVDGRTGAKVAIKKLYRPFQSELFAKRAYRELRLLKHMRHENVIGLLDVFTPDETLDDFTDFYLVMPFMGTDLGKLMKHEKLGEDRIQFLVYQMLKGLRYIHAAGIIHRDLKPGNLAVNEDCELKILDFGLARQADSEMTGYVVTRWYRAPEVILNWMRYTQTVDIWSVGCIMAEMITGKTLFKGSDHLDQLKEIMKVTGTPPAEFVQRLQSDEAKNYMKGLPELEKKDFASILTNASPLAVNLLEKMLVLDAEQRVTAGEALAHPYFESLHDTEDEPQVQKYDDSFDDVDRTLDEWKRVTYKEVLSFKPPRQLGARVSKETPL
Description: (§1) Generally, the same procedure was used for all assays. Since the total assay volume was 25.5 microliters, 0.5 microliters of inhibitors at 51× assay concentration were added to the plates before any other addition.
(§2) The basic procedure was to add 0.5 microliters inhibitor/control in DMSO to plate. Fifteen microliters of enzyme/substrate/buffer mix were added and incubated for 5 min. Ten microliters MgATP at the relevant concentration were added and incubated for 30 min. The assay was stopped by adding 5 microliters of 3% orthophosphoric acid. The assay was transferred to a p81 filter plate and read in a scintillation counter of 30 sec/well. Note that this assay procedure was not followed for MKK1, which instead involved a two-step assay, and PKC alpha, which required the addition of lipid vesicles.
(§3) SAPK 3/p38g assay: SAPK 3/p38g (5-20 mU diluted in 50 mM Tris pH 7.5, 0.1 mM EGTA, 0.1 mM Na3VO4, 0.1% b-mercaptoethanol, 1 mg/ml BSA) was assayed against MBP in a final volume of 25.5 μl containing 25 mM Tris pH 7.5, 0.1 mM EGTA, 0.33 mg/ml MBP, 10 mM magnesium acetate and 0.005 mM [33P-g-ATP] (50-1000 cpm/pmole) and incubated for 30 min at room temperature. Assays were stopped by addition of 5 μl of 0.5 M (3%) orthophosphoric acid and then harvested onto P81 Unifilter plates with a wash buffer of 50 mM orthophosphoric acid.

PAK4 = PAK4 (Homo sapiens, UniProt O96013); assay: Kinase screen: PAK4 assay
Chain of PAK4 (O96013 whole entry, species assumed): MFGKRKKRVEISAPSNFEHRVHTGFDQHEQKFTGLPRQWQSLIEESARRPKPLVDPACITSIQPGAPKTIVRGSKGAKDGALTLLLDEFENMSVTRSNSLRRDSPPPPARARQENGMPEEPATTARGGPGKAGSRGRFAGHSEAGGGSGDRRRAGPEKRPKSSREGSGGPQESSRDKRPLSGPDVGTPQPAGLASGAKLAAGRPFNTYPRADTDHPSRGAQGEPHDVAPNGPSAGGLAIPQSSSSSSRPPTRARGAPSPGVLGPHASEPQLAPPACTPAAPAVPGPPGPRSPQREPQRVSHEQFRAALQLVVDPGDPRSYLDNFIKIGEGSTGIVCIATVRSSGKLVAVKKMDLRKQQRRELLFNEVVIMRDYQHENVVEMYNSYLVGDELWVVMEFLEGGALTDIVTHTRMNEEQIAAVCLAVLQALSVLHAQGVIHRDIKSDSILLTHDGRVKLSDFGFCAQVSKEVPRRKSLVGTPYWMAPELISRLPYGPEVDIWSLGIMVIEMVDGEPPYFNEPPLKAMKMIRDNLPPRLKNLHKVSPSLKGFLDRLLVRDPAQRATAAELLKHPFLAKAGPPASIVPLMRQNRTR
Description: as §1, §2
PAK4 assay: PAK4 (5-20 mU diluted in 50 mM Tris pH 7.5, 0.1 mM EGTA, 0.1% b-mercaptoethanol, 1 mg/ml BSA) was assayed against a substrate peptide ([…]) (SEQ ID NO: 30) in a final volume of 25.5 μl containing 50 mM Tris pH 7.5, 0.05% b-mercaptoethanol, 300 μM substrate peptide, 10 mM magnesium acetate and 0.005 mM [33P-g-ATP] (50-1000 cpm/pmole) and incubated for 30 min at room temperature. Assays were stopped by addition of 5 μl of 0.5 M (3%) orthophosphoric acid and then harvested onto P81 Unifilter plates with a wash buffer of 50 mM orthophosphoric acid.

p38σ MAPK = target: T2, p38σ MAPK (Homo sapiens, UniProt O15264); assay: Kinase screen: SAPK 4/p38d assay
T2 sequence (O15264 1-365): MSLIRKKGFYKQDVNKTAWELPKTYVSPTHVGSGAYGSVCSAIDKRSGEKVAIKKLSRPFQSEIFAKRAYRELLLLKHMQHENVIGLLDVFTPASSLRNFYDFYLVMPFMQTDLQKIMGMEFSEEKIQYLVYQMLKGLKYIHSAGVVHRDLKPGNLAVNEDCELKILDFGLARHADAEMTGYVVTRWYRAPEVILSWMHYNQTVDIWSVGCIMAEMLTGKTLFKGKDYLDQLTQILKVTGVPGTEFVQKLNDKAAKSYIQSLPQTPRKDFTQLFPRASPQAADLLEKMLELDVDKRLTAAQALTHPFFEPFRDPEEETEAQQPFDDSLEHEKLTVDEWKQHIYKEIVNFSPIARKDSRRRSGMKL
Description: as §1, §2
as §3, with “4/p38d” for “3/p38g”

PDK1 = target: T3, PDK1 (Homo sapiens, UniProt O15530); assay: Kinase screen: PDK1 assay
T3 sequence (O15530 1-556): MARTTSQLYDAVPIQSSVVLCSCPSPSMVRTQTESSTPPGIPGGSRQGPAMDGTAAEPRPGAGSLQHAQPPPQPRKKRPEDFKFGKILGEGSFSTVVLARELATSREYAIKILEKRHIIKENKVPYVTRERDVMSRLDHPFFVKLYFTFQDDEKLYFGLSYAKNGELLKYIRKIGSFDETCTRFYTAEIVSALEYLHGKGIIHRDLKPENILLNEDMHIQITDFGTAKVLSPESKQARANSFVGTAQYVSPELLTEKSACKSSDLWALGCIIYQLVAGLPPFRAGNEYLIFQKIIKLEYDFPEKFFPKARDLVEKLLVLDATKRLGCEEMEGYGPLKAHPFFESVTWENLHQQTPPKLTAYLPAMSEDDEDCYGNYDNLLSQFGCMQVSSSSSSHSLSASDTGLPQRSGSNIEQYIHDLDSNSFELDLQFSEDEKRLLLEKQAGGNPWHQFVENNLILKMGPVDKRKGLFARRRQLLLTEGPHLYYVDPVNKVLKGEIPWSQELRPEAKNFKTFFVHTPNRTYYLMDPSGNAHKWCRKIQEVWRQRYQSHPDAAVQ
Description: as §1, §2
(50-1000 cpm/pmole) and incubated for 30 min at room temperature Assays were stopped by addition of 5 μl of 0.5 M (3%) orthophosphoric acid and then harvested onto P81 Unifilter plates with a wash buffer of 50 mM orthophosphoric acid.

[1] = 10 micromolar compound, read-out: mean activity remaining (as a percentage of the original activity), p38g MAPK
[2] = 10 micromolar compound, read-out: mean activity remaining (as a percentage of the original activity), PAK4
[3] = 10 micromolar compound, read-out: mean activity remaining (as a percentage of the original activity), p38s MAPK
[4] = 10 micromolar compound, read-out: mean activity remaining (as a percentage of the original activity), PDK1

Row | SMILES | remaining activity at 10 µM (p38γ MAPK; [1]) [%] | remaining activity at 10 µM (PAK4; [2]) [%] | remaining activity at 10 µM (p38σ MAPK; [3]) [%] | remaining activity at 10 µM (PDK1; [4]) [%] | also measured
1 | CC(C)c1cnn2c(NCc3ccccc3)cc(NCCCCCCCN)nc12 [BS-181] |  |  |  |  | remaining activity at 10 µM (p38γ MAPK; p38γ MAPK, 10 μM, read-out: Mean Remaining Enzyme Activity (%)): 108%; remaining activity at 10 µM (PAK4; PAK4, 10 μM, read-out: Mean Remaining Enzyme Activity (%)): 75%; remaining activity at 10 µM (p38σ MAPK; p38σ MAPK, 10 μM, read-out: Mean Remaining Enzyme Activity (%)): 96%; remaining activity at 10 µM (PDK1; PDK1, 10 μM, read-out: Mean Remaining Enzyme Activity (%)): 80%
2 | C=C[C@H](CO)Nc1cc(NCc2ccccc2)n2ncc(C(C)C)c2n1 [ICEC0065] | 108 | 82 | 86 | 78 | 
3 | CC[C@H](CO)Nc1cc(NCc2ccccc2)n2ncc(C(C)C)c2n1 [ICEC0067] | 82 | 75 | 86 | 87 | 
4 | CC(C)c1cnn2c(NCc3ccccc3)cc(N[C@@H](CO)[C@H](O)CO)nc12 [ICEC0318, (3S)-3-(7-(Benzylamino)-3-isopropylpyrazolo[1,5-a]pyrimidin-5-ylamino)butane-1,2,4-triol] | 112 | 55 | 86 | 84 | 
5 | CC(C)c1cnn2c(NCc3ccccc3F)cc(NCCCCCN)nc12 [ICEC-0232] |  |  |  |  | mean activity remaining (as a percentage of the original activity), p38g MAPK (p38γ MAPK; 10 micromolar compound): 91%; mean activity remaining (as a percentage of the original activity), PAK4 (PAK4; 10 micromolar compound): 58%; mean activity remaining (as a percentage of the original activity), p38s MAPK (p38σ MAPK; 10 micromolar compound): 78%; mean activity remaining (as a percentage of the original activity), PDK1 (PDK1; 10 micromolar compound): 101%
